Assay results: patent US9073855B2, “BCL-2 selective apoptosis-inducing agents for the treatment of cancer and immune diseases” (AbbVie Inc., priority 2008, dated 2015)

How the values were obtained:
GST-Bcl-2 = GST-Bcl-2 (Homo sapiens, UniProt P10415); experiment: TR-FRET binding assay, GST-Bcl-2 with F-Bak peptide probe; conditions: for Ki: TR-FRET Binding Affinity, GST-Bcl-2, F-Bak peptide probe
Outline: (§1)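 Competitive TR-FRET: GST-fusion protein, fluorescent Bak peptide probe and Tb-labelled anti-GST antibody incubated with compound dilution series (starting 50 μM as 2× stock, 10% DMSO) for 3 h at RT. Excitation 340/35 nm; Ki derived via Wang's exact competitive-binding equation.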

GST-Bcl-XL = GST-Bcl-XL (Homo sapiens, UniProt Q07817); experiment: TR-FRET binding assay, GST-Bcl-XL with F-Bak peptide probe; conditions: TR-FRET Binding Affinity, GST-Bcl-XL, F-Bak peptide probe
Outline: as §1

Canine platelets = experiment: Platelet cell viability assay (platelet-rich plasma, Cell Titer Glo); format: cell-based; conditions: Canis lupus familiaris, 5 h, isolated canine platelets ex vivo, five hours at 37° C.
Procedure: After the incubation, platelets were equilibrated to room temperature for 20 minutes and then an equal volume of Cell Titer Glo reagent (Promega Corporation) was added. Samples were mixed for two minutes and then allowed to equilibrate for an additional 10 minutes at room temperature. The luminescence generated from the samples was quantitated using an LJL Analyst plate reader.
The effect of compounds on platelet survival can be directly evaluated ex vivo by examining the viability of isolated canine platelets in the presence of various concentrations of compound.

FL5.12/Bcl-2 cells = experiment: FL5.12/Bcl-2 cell viability assay under IL-3 withdrawal (CellTitre Glo); format: cell-based, murine; conditions: Mus musculus, IL-3 withdrawn 48 hrs, then 24 hrs with compound
Outline: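 Viability measured with CellTiter-Glo after 24 h compound treatment at various concentrations, following 48 h IL-3 withdrawal (no WEHI-3B medium). Cells: prolymphocytic mouse FL5.12 line stably transfected to overexpress Bcl-2, cultured at 37 °C, 5% CO2.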

Sequence of GST-Bcl-XL (Q07817 whole entry): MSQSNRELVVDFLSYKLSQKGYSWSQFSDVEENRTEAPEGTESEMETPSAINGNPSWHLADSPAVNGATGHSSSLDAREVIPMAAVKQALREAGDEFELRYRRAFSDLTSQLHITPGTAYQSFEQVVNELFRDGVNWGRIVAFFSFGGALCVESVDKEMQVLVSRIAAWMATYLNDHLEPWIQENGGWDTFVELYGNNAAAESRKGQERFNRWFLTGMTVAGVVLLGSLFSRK
Sequence of GST-Bcl-2 (P10415 whole entry, the tested form may be a part): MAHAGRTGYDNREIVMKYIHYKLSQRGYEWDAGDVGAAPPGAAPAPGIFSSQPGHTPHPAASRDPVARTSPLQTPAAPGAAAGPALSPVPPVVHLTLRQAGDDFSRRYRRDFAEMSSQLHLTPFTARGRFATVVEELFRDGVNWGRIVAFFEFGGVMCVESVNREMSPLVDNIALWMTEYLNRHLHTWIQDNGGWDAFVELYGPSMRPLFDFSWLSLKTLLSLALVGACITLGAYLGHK

SMILES | Ki (GST-Bcl-2) | Ki (GST-Bcl-XL) | EC50 (Canine platelets) | EC50 (FL5.12/Bcl-2 cells) | Binding selectivity ratio (Bcl-XL Ki/Bcl-2 Ki) (GST-Bcl-2; ratio of TR-FRET Ki values, Bcl-XL over Bcl-2)
CN1CCC(Nc2ccc(S(=O)(=O)NC(=O)c3ccc(N4CCN(CC5=C(c6ccc(Cl)cc6)CCC5)CC4)cc3Oc3cccc4[nH]ccc34)cc2[N+](=O)[O-])CC1 [Example 148, 4-(4-{[2-(4-chlorophenyl)cyclopent-1-en-1-yl]methyl}piperazin-1-yl)-2-(1H-indol-4-yloxy)-N-({4-[(1-methylpiperidin-4-yl)amino]-3-nitrophenyl}sulfonyl)benzamide] | 2.89 nM | > 660 nM | 19800 nM | – | –
CN(C)CCCOc1ccc(S(=O)(=O)NC(=O)c2ccc(N3CCN(CC4=C(c5ccc(Cl)cc5)CC(C)(C)CC4)CC3)cc2Oc2cccc3[nH]ccc23)cc1[N+](=O)[O-] [Example 106, 4-(4-{[2-(4-chlorophenyl)-4,4-dimethylcyclohex-1-en-1-yl]methyl}piperazin-1-yl)-N-({4-[3-(dimethylamino)propoxy]-3-nitrophenyl}sulfonyl)-2-(1H-indol-4-yloxy)benzamide] | – | – | 15200 nM | 9 nM | –
CN(C)CCOc1cccc(-c2ccc(Cl)cc2)c1CN1CCN(c2ccc(C(=O)NS(=O)(=O)c3ccc(NCC4CCOCC4)c([N+](=O)[O-])c3)c(Oc3ccc4[nH]ccc4c3)c2)CC1 [Example 129, 4-[4-({4′-chloro-3-[2-(dimethylamino)ethoxy]-1,1′-biphenyl-2-yl}methyl)piperazin-1-yl]-2-(1H-indol-5-yloxy)-N-({3-nitro-4-[(tetrahydro-2H-pyran-4-ylmethyl)amino]phenyl}sulfonyl)benzamide] | – | – | > 50000 nM | 21 nM | –
CC1(C)CCC(CN2CCN(c3ccc(C(=O)NS(=O)(=O)c4ccc(NC5CCN(C6CCOCC6)CC5)c([N+](=O)[O-])c4)c(Oc4cccc5[nH]ncc45)c3)CC2)=C(c2ccc(Cl)cc2)C1 [Example 401, 4-(4-{[2-(4-chlorophenyl)-4,4-dimethylcyclohex-1-en-1-yl]methyl}piperazin-1-yl)-2-(1H-indazol-4-yloxy)-N-({3-nitro-4-[(1-tetrahydro-2H-pyran-4-ylpiperidin-4-yl)amino]phenyl}sulfonyl)benzamide] | < 0.01 nM | 1.62 nM | – | 5.38 nM | >162.1
CC1(C)CCC(CN2CCN(c3ccc(C(=O)NS(=O)(=O)c4ccc(NC5CCC(N6CCOCC6)CC5)c([N+](=O)[O-])c4)c(Oc4ccc5[nH]ccc5c4)c3)CC2)=C(c2ccc(Cl)cc2)C1 (centres unmarked) [Example 363, 4-(4-{[2-(4-chlorophenyl)-4,4-dimethylcyclohex-1-en-1-yl]methyl}piperazin-1-yl)-2-(1H-indol-5-yloxy)-N-({4-[(4-morpholin-4-ylcyclohexyl)amino]-3-nitrophenyl}sulfonyl)benzamide] | 0.18 nM | > 660 nM | – | 86.9 nM | –
CC1(C)CCC(CN2CCN(c3ccc(C(=O)NS(=O)(=O)c4ccc(OC5CCN(C6CCOCC6)CC5)c([N+](=O)[O-])c4)c(Oc4ccc5[nH]ccc5c4)c3)CC2)=C(c2ccc(Cl)cc2)C1 [Example 389, 4-(4-{[2-(4-chlorophenyl)-4,4-dimethylcyclohex-1-en-1-yl]methyl}piperazin-1-yl)-2-(1H-indol-5-yloxy)-N-({3-nitro-4-[(1-tetrahydro-2H-pyran-4-ylpiperidin-4-yl)oxy]phenyl}sulfonyl)benzamide] | 0.098 nM | 67.2 nM | – | 28.1 nM | –
CC1(C)CCC(CN2CCN(c3ccc(C(=O)NS(=O)(=O)c4ccc(NC5CCN(Cc6cscn6)CC5)c([N+](=O)[O-])c4)c(Oc4ccc5[nH]ccc5c4)c3)CC2)=C(c2ccc(Cl)cc2)C1 [Example 231, 4-(4-{[2-(4-chlorophenyl)-4,4-dimethylcyclohex-1-en-1-yl]methyl}piperazin-1-yl)-2-(1H-indol-5-yloxy)-N-[(3-nitro-4-{[1-(1,3-thiazol-4-ylmethyl)piperidin-4-yl]amino}phenyl)sulfonyl]benzamide] | 0.918 nM | > 660 nM | – | 50.9 nM | –
CC1(C)CCC(CN2CCN(c3ccc(C(=O)NS(=O)(=O)c4ccc(NCC5(O)CCCCC5)c([N+](=O)[O-])c4)c(Oc4ccc5[nH]ccc5c4)c3)CC2)=C(c2ccc(Cl)cc2)C1 [Example 238, 4-(4-{[2-(4-chlorophenyl)-4,4-dimethylcyclohex-1-en-1-yl]methyl}piperazin-1-yl)-N-[(4-{[(1-hydroxycyclohexyl)methyl]amino}-3-nitrophenyl)sulfonyl]-2-(1H-indol-5-yloxy)benzamide] | 0.43 nM | > 660 nM | – | 59 nM | –
CC1(C)CCC(CN2CCN(c3ccc(C(=O)NS(=O)(=O)c4ccc(NC5CCN(C6Cc7ccccc7C6)CC5)c([N+](=O)[O-])c4)c(Oc4ccc5[nH]ccc5c4)c3)CC2)=C(c2ccc(Cl)cc2)C1 [Example 228, 4-(4-{[2-(4-chlorophenyl)-4,4-dimethylcyclohex-1-en-1-yl]methyl}piperazin-1-yl)-N-[(4-{[1-(2,3-dihydro-1H-inden-2-yl)piperidin-4-yl]amino}-3-nitrophenyl)sulfonyl]-2-(1H-indol-5-yloxy)benzamide] | 4.67 nM | > 660 nM | – | > 500 nM | –
CC1(C)CCC(c2ccc(Cl)cc2)=C(CN2CCN(c3ccc(C(=O)NS(=O)(=O)c4ccc(NCC5CCOCC5)c([N+](=O)[O-])c4)c(Oc4ccc5[nH]ccc5c4)c3)CC2)C1 [Example 290, 4-(4-{[2-(4-chlorophenyl)-5,5-dimethylcyclohex-1-en-1-yl]methyl}piperazin-1-yl)-2-(1H-indol-5-yloxy)-N-({3-nitro-4-[(tetrahydro-2H-pyran-4-ylmethyl)amino]phenyl}sulfonyl)benzamide] | 0.365 nM | > 660 nM | – | 44.7 nM | –
CC(C)(C)CCNc1ccc(S(=O)(=O)NC(=O)c2ccc(N3CCN(CC4=C(c5ccc(Cl)cc5)CC(C)(C)CC4)CC3)cc2Oc2ccc3[nH]ccc3c2)cc1[N+](=O)[O-] [Example 368, 4-(4-{[2-(4-chlorophenyl)-4,4-dimethylcyclohex-1-en-1-yl]methyl}piperazin-1-yl)-N-({4-[(3,3-dimethylbutyl)amino]-3-nitrophenyl}sulfonyl)-2-(1H-indol-5-yloxy)benzamide] | > 1200 nM | > 660 nM | – | > 500 nM | –
COC1CCC(Nc2ccc(S(=O)(=O)NC(=O)c3ccc(N4CCN(CC5=C(c6ccc(Cl)cc6)CC(C)(C)CC5)CC4)cc3Oc3ccc4[nH]ccc4c3)cc2[N+](=O)[O-])CC1 (centres unmarked) [Example 265, 4-(4-{[2-(4-chlorophenyl)-4,4-dimethylcyclohex-1-en-1-yl]methyl}piperazin-1-yl)-2-(1H-indol-5-yloxy)-N-({4-[(4-methoxycyclohexyl)amino]-3-nitrophenyl}sulfonyl)benzamide] | 1.7 nM | > 660 nM | – | 244 nM | –
CN1CCN(Nc2ccc(S(=O)(=O)NC(=O)c3ccc(N4CCN(CC5=C(c6ccc(Cl)cc6)CCC(O)C5)CC4)cc3Oc3ccc4[nH]ccc4c3)cc2[N+](=O)[O-])CC1 (centres unmarked) [Example 226, 4-(4-{[2-(4-chlorophenyl)-5-hydroxycyclohex-1-en-1-yl]methyl}piperazin-1-yl)-2-(1H-indol-5-yloxy)-N-({4-[(4-methylpiperazin-1-yl)amino]-3-nitrophenyl}sulfonyl)benzamide] | 0.017 nM | 9.93 nM | – | 23 nM | –
CC(c1ccccc1-c1ccc(Cl)cc1)N1CCN(c2ccc(C(=O)NS(=O)(=O)c3ccc(NCC4CCOCC4)c([N+](=O)[O-])c3)c(Oc3cccc4[nH]ccc34)c2)CC1 (centres unmarked) [Example 175, 4-{4-[1-(4′-chloro-1,1′-biphenyl-2-yl)ethyl]piperazin-1-yl}-2-(1H-indol-4-yloxy)-N-({3-nitro-4-[(tetrahydro-2H-pyran-4-ylmethyl)amino]phenyl}sulfonyl)benzamide] | 0.1 nM | > 660 nM | – | 6.2 nM | –
CC(C)C[C@@H](CO)Nc1ccc(S(=O)(=O)NC(=O)c2ccc(N3CCN(CC4=C(c5ccc(Cl)cc5)CC(C)(C)CC4)CC3)cc2Oc2ccc3[nH]ccc3c2)cc1[N+](=O)[O-] [Example 369, 4-(4-{[2-(4-chlorophenyl)-4,4-dimethylcyclohex-1-en-1-yl]methyl}piperazin-1-yl)-N-[(4-{[(1S)-1-(hydroxymethyl)-3-methylbutyl]amino}-3-nitrophenyl)sulfonyl]-2-(1H-indol-5-yloxy)benzamide] | 838 nM | > 660 nM | – | > 500 nM | –
CC1(C)CCC(CN2CCN(c3ccc(C(=O)NS(=O)(=O)c4ccc(NCC5CCOCC5)c(S(=O)(=O)C(F)(F)F)c4)c(Oc4cccc5[nH]ccc45)c3)CC2)=C(c2ccc(Cl)cc2)C1 [Example 303, 4-(4-{[2-(4-chlorophenyl)-4,4-dimethylcyclohex-1-en-1-yl]methyl}piperazin-1-yl)-2-(1H-indol-4-yloxy)-N-({4-[(tetrahydro-2H-pyran-4-ylmethyl)amino]-3-[(trifluoromethyl)sulfonyl]phenyl}sulfonyl)benzamide] | 1.48 nM | > 660 nM | – | > 500 nM | –
